As usually defined, the pIC50 is the negative decadic logarithm of the IC50, by convention in mol/L. What is called pKi is the negative decadic logarithm of the Ki, by convention in mol/L.

Structures are written as SMILES. pIC50, pKi: −log10 of the molar value. *1 amine or outer side, *2 acyl side, *3 side chain or, on linkers, in order; H or OH if unused. Where a SMILES comes first, the peptide text is derived from it. Bridges are numbered along the chain shown (N, C = ends). Roman numbers before positions name the chains, in order. [ ]: non-standard residue; d: D form. Actinocin(1to9) = Cc1c2oc3c(C)ccc(C(=O)[*:2])c3nc-2c(C(=O)[*:1])c(N)c1=O; NMeV = CN[C@H](C(=O)O)C(C)C; Sar = CNCC(=O)O

This passage reports IC50 and Ki results from ChEMBL document CHEMBL1909046, “DrugMatrix in vitro pharmacology data”.

Experiment [1] concerns the target Vascular endothelial growth factor receptor 1 (Homo sapiens, UniProt P17948). Type of experiment: cell-based. The conditions noted are these: huvec. Further: in other assays of this panel Not Active means under 50% inhibition at 10 µM.
A short description of experiment [2]: DRUGMATRIX: Glutamate, NMDA, Phencyclidine radioligand binding (ligand: [3H] TCP). It is filed as cell membranes, Rattus norvegicus, Wistar, Cerebral cortex, Membrane. The settings on record: Not Active = under 50% inhibition at 10 µM.
In experiment [3] the target is 5-hydroxytryptamine receptor 4 (Cavia porcellus, UniProt O70528). Type of experiment: cell membranes, Dunkin-Hartley, Striatum, Membrane. Further: in other assays of this panel Not Active means under 50% inhibition at 10 µM.
Experiment [4] addresses Matrix metalloproteinase-9 (Homo sapiens, UniProt P14780). Kind of experiment: biochemical. Type of experiment: cell-based.
For experiment [5], the target named is Kappa-type opioid receptor (Homo sapiens, UniProt P41145). Put plainly: DRUGMATRIX: Opiate kappa (OP2, KOP) radioligand binding (ligand: [3H] Diprenorphine). Type of experiment: cell membranes, HEK293, Membrane. The conditions noted are these: hek293; Not Active = under 50% inhibition at 10 µM.
Experiment [6] can be described thus: DRUGMATRIX: Imidazoline I2, Central radioligand binding (ligand: [3H] Idazoxan). Type of experiment: cell membranes, Rattus norvegicus, Wistar, Cerebral cortex, Membrane. The settings on record: Not Active = under 50% inhibition at 10 µM.
A further experiment addresses T1, Interstitial collagenase (Homo sapiens, UniProt P03956).
T1 sequence (P03956 whole entry): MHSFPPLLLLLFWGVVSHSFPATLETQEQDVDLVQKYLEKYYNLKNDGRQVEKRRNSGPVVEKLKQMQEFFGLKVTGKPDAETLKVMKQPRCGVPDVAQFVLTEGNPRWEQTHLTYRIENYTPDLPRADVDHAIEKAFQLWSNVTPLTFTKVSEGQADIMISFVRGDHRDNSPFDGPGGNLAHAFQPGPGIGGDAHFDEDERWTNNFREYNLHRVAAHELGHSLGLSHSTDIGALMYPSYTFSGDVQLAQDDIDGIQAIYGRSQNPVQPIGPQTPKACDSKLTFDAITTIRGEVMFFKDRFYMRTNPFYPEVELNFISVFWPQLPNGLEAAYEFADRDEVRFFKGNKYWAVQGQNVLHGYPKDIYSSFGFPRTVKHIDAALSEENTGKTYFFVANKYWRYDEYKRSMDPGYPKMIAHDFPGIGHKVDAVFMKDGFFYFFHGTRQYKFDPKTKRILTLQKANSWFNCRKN
Put plainly: biochemical. Type of experiment: tissue-based, Rheumatoid synovial fibroblasts.

Sequence of 5-hydroxytryptamine receptor 4 (O70528 whole entry): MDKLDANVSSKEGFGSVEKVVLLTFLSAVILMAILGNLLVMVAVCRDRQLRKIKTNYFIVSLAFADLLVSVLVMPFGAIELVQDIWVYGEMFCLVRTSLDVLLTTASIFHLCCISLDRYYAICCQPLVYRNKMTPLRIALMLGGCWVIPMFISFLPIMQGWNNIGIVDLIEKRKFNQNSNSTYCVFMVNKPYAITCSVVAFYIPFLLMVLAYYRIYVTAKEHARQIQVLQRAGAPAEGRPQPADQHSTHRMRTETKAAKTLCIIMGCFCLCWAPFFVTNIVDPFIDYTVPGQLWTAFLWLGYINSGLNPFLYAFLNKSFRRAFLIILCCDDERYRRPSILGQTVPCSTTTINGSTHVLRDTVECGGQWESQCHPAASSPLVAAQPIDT
Sequence of Kappa-type opioid receptor (P41145 whole entry): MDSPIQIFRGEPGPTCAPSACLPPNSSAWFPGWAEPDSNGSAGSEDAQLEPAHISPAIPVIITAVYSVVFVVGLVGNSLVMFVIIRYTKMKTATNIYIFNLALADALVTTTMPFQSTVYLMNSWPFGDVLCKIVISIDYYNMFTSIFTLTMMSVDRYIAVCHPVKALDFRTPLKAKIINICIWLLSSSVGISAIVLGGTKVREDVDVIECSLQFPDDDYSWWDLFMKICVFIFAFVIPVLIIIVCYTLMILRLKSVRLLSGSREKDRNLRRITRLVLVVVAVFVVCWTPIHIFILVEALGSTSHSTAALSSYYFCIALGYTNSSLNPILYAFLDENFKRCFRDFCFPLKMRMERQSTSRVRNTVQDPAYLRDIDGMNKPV
Sequence of Matrix metalloproteinase-9 (P14780 whole entry): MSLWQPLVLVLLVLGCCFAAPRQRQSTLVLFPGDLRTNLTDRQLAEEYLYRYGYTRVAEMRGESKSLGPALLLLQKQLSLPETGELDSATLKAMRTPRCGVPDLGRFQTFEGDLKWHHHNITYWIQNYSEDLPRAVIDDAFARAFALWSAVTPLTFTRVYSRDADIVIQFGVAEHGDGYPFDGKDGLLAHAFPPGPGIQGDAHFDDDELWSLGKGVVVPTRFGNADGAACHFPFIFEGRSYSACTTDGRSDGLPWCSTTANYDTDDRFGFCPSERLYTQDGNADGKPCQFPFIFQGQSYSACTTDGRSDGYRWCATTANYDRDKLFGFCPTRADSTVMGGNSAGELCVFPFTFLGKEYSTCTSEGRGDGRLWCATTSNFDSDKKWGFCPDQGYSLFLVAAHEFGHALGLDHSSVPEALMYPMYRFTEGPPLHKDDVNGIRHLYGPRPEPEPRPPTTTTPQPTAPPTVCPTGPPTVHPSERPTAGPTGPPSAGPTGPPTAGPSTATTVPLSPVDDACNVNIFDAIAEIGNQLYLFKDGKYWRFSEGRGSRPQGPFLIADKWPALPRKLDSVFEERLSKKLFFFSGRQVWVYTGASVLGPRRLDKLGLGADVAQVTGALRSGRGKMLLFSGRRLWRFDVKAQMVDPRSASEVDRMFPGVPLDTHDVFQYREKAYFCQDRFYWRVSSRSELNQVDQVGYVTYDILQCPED
Sequence of Vascular endothelial growth factor receptor 1 (P17948 whole entry): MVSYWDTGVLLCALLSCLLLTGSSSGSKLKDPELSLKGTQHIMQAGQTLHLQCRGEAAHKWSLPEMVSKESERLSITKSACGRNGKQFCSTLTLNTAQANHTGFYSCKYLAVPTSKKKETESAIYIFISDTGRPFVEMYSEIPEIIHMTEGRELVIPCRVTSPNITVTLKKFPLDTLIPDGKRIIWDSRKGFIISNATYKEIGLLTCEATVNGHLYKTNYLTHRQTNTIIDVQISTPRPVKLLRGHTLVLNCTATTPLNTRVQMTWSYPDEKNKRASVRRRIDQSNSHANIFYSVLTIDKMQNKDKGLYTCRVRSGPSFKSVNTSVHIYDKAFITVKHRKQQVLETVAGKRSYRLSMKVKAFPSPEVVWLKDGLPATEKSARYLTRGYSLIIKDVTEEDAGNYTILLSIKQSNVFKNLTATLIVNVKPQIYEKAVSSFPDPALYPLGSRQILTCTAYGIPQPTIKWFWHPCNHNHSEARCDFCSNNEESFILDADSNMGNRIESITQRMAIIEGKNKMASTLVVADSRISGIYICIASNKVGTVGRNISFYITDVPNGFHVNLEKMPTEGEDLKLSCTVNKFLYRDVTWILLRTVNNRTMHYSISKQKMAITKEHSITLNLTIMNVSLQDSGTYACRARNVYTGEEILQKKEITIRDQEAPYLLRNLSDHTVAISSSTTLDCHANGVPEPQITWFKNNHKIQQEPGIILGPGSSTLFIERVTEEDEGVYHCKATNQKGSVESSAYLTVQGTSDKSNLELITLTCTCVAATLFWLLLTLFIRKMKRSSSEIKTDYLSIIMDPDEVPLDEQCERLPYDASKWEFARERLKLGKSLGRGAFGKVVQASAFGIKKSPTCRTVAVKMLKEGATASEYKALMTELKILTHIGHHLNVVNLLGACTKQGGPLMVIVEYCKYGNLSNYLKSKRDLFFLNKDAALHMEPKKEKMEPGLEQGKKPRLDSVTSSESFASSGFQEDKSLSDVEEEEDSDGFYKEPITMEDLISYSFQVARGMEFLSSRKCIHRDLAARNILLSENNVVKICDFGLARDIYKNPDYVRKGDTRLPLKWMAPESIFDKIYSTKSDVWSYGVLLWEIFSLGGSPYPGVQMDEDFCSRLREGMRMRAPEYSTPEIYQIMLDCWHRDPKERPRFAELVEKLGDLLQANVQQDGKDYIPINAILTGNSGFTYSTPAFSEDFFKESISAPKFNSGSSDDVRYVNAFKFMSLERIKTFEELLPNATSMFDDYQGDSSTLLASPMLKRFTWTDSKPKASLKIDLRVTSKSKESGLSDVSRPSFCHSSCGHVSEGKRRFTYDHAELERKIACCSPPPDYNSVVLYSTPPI

For `Nc1c(Br)cc(Br)cc1CN[C@H]1CC[C@H](O)CC1` [AMBROXOL], the IC50 entry in experiment [1], in experiment [2], in experiment [3], in experiment [4], in experiment [5] and in experiment [6] was “Not Active” in each case. In addition, the IC50 entry on Interstitial collagenase is “Not Active”. Besides, the Ki result in experiment [2] and in experiment [6] was “Not Active” throughout.

Take `NCCCCCC(=O)O` [AMINOCAPROIC ACID]: the IC50 entry in experiment [1], in experiment [2], in experiment [3], in experiment [4], in experiment [5] and in experiment [6] was “Not Active” each time. Moreover, on Interstitial collagenase, the IC50 result was “Not Active”. The Ki result in experiment [2] and in experiment [6] was “Not Active” throughout.

As to `CCC(C)n1ncn(-c2ccc(N3CCN(c4ccc(OCC5COC(Cn6cncn6)(c6ccc(Cl)cc6Cl)O5)cc4)CC3)cc2)c1=O` (stereo not given) [ITRACONAZOLE], the IC50 result in experiment [1], in experiment [2], in experiment [3], in experiment [4], in experiment [5] and in experiment [6] was “Not Active” in each case. In addition, at Interstitial collagenase, the IC50 result was “Not Active”. The Ki entry in experiment [2] and in experiment [6] was “Not Active” each time.

`Cc1c(C)c2c(c(C)c1O)CC[C@@](C)(CCC[C@H](C)CCC[C@H](C)CCCC(C)C)O2` [ALPHA-TOCOPHEROL]: the IC50 result in experiment [1], in experiment [2], in experiment [3], in experiment [4], in experiment [5] and in experiment [6] was “Not Active” throughout. Besides, the IC50 result on Interstitial collagenase is “Not Active”. In addition, the Ki result in experiment [2] and in experiment [6] was “Not Active” throughout.

Consider `Cc1cc(C(C#N)c2ccc(Cl)cc2)c(Cl)cc1NC(=O)c1cc(I)cc(I)c1O` (stereo not given) [CLOSANTEL], for which the IC50 entry in experiment [1], in experiment [2], in experiment [3], in experiment [4], in experiment [5] and in experiment [6] was “Not Active” in each case. Further, the IC50 entry against Interstitial collagenase is given as “Not Active”. Also, the Ki entry in experiment [2] and in experiment [6] was “Not Active” throughout.

Take `CNNCc1ccc(C(=O)NC(C)C)cc1` [PROCARBAZINE]: the IC50 result in experiment [1], in experiment [2], in experiment [3], in experiment [4], in experiment [5] and in experiment [6] was “Not Active” each time. Besides, the IC50 entry on Interstitial collagenase is reported as “Not Active”. Further, the Ki result in experiment [2] and in experiment [6] was “Not Active” each time.

Turning to `CNCCc1ccccn1` [BETAHISTINE], the IC50 result in experiment [1], in experiment [2], in experiment [3], in experiment [4], in experiment [5] and in experiment [6] was “Not Active” each time. For the same molecule, the IC50 result at Interstitial collagenase is on record as “Not Active”. Moreover, the Ki result in experiment [2] and in experiment [6] was “Not Active” in each case.

Turning to `OC(Cn1cncn1)(Cn1cncn1)c1ccc(F)cc1F` [FLUCONAZOLE], the IC50 result in experiment [1], in experiment [2], in experiment [3], in experiment [4], in experiment [5] and in experiment [6] was “Not Active” each time. In addition, at Interstitial collagenase, the IC50 result was “Not Active”. For the same molecule, the Ki entry in experiment [2] and in experiment [6] was “Not Active” throughout.

`Cc1c2oc3c(C)ccc(C(=O)N[C@@H]4C(=O)N[C@H](C(C)C)C(=O)N5CCC[C@H]5C(=O)N(C)CC(=O)N(C)[C@@H](C(C)C)C(=O)O[C@@H]4C)c3nc-2c(C(=O)N[C@@H]2C(=O)N[C@H](C(C)C)C(=O)N3CCC[C@H]3C(=O)N(C)CC(=O)N(C)[C@@H](C(C)C)C(=O)O[C@@H]2C)c(N)c1=O` [DACTINOMYCIN] (I: T[dV]P[Sar][NMeV] / II: T[dV]P[Sar][NMeV]; ester I:1-I:C, II:1-II:C; linker I:N-II:N via Actinocin(1to9)): the IC50 entry in experiment [1], in experiment [2], in experiment [3], in experiment [4], in experiment [5] and in experiment [6] was “Not Active” each time. Besides, the IC50 entry against Interstitial collagenase is reported as “Not Active”. Further, the Ki entry in experiment [2] and in experiment [6] was “Not Active” in each case.

Take `Nc1nc(N)nc(-c2cc(Cl)ccc2Cl)n1.O=C(O)/C=C\C(=O)O` [IRSOGLADINE MALEATE]: the IC50 result in experiment [1], in experiment [2], in experiment [3], in experiment [4], in experiment [5] and in experiment [6] was “Not Active” throughout. The IC50 entry at Interstitial collagenase was “Not Active”. Besides, the Ki result in experiment [2] and in experiment [6] was “Not Active” in each case.

With `Nc1ncn([C@@H]2O[C@H](CO)[C@@H](O)[C@H]2O)c(=O)n1` [AZACITIDINE], the IC50 entry in experiment [1], in experiment [2], in experiment [3], in experiment [4], in experiment [5] and in experiment [6] was “Not Active” in each case. For the same molecule, on Interstitial collagenase, the IC50 result is on record as “Not Active”. Further, the Ki result in experiment [2] and in experiment [6] was “Not Active” in each case.

In the case of `CC(NC(C)(C)C)C(=O)c1cccc(Cl)c1` (stereo not given) [BUPROPION], the IC50 result in experiment [1], in experiment [2], in experiment [3], in experiment [4], in experiment [5] and in experiment [6] was “Not Active” in each case. Moreover, the IC50 entry at Interstitial collagenase is “Not Active”. In addition, the Ki entry in experiment [2] and in experiment [6] was “Not Active” in each case.

In the case of `Cc1cc(C2CCCCC2)n(O)c(=O)c1` [CICLOPIROX], the IC50 entry in experiment [1], in experiment [2], in experiment [3], in experiment [4], in experiment [5] and in experiment [6] was “Not Active” in each case. The IC50 result against Interstitial collagenase is recorded as “Not Active”. Besides, the Ki entry in experiment [2] and in experiment [6] was “Not Active” each time.

As for `CC1(C)S[C@@H]2[C@H](NC(=O)Cc3ccccc3)C(=O)N2[C@H]1C(=O)O` [PENICILLIN G], the IC50 entry in experiment [1], in experiment [2], in experiment [3], in experiment [4], in experiment [5] and in experiment [6] was “Not Active” each time. The IC50 entry on Interstitial collagenase is recorded as “Not Active”. Further, the Ki entry in experiment [2] and in experiment [6] was “Not Active” in each case.

With `CCCCc1nc(Cl)c(CO)n1Cc1ccc(-c2ccccc2-c2nnn[nH]2)cc1` [LOSARTAN], the IC50 result in experiment [1], in experiment [2], in experiment [3], in experiment [4], in experiment [5] and in experiment [6] was “Not Active” in each case. At Interstitial collagenase, the IC50 result is reported as “Not Active”. Moreover, the Ki result in experiment [2] and in experiment [6] was “Not Active” each time.

In the case of `COc1cc2nc(N3CCN(C(=O)C4COc5ccccc5O4)CC3)nc(N)c2cc1OC` (stereo not given) [DOXAZOSIN], the IC50 entry in experiment [1], in experiment [2], in experiment [4], in experiment [5] and in experiment [6] was “Not Active” each time. In addition, the Ki result in experiment [2] and in experiment [6] was “Not Active” throughout. For the same molecule, the pIC50 in experiment [3] (read-out: IC50) was 6.12; at Interstitial collagenase (read-out: IC50), 5.24. Further, in experiment [3] (read-out: Ki), the negative logarithm of the Ki (pKi) was 6.90.
